{"source": "patent US8952024B2", "about": "“Herbicidal pyrimidone derivatives” (E I du Pont de Nemours and Company, priority 2009, dated 2015)", "format_in_all_cases": "in vivo", "key": {"[1]": {"tested_on": "barnyardgrass (Echinochloa crus-galli)", "assay": "Test A pre-/postemergence plant response", "conditions": "Echinochloa crus-galli, pre-emergence, 240 h; Preemergence, 500 g ai/ha; visual injury, 0 to 100 scale (0 no effect, 100 complete control), approx. ten days; read-out: Plant response rating, Barnyardgrass", "how_it_was_run": "(§1)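 Greenhouse trial, ~10 days. Soil (loam/sand) sprayed preemergence after seeding; emerged plants (1–2 leaf, 2–10 cm) sprayed postemergence in parallel. Response = visual injury vs untreated control, 0–100.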"}, "[2]": {"tested_on": "morningglory (Ipomoea spp.)", "assay": "Test A pre-/postemergence plant response", "conditions": "Ipomoea, 240 h; for pest or weed control at 125 g/ha: 125 g ai/ha; for pest or weed control at 500 g/ha: 500 g ai/ha", "how_it_was_run": "as §1"}, "[3]": {"tested_on": "wheat (Triticum aestivum)", "assay": "Test B pre-/postemergence plant response", "conditions": "for plant injury at 31 g/ha: 31 g ai/ha; for plant injury at 62 g/ha: 62 g ai/ha", "excerpt": "(§2) Seeds of plant species selected from blackgrass (Alopecurus myosuroides), downy bromegrass (Bromus tectorum), green foxtail (Setaria viridis), Italian ryegrass (Lolium multiflorum), wheat (Triticum aestivum), wild oat (Avena fatua), deadnettle (henbit deadnettle, Lamium amplexicaule), galium (catchweed bedstraw, Galium aparine), bermudagrass (Cynodon dactylon), Surinam grass (Brachiaria decumbens), cocklebur (Xanthium strumarium), corn (Zea mays), large crabgrass (Digitaria sanguinalis), woolly cupgrass (Eriochloa villosa), giant foxtail (Setaria faberii), goosegrass (Eleusine indica), johnsongrass (Sorghum halepense), kochia (Kochia scoparia), lambsquarters (Chenopodium album), morningglory (Ipomoea coccinea), nightshade (eastern black nightshade, Solanum ptycanthum), yellow nutsedge (Cyperus esculentus), pigweed (Amaranthus retroflexus), ragweed (common ragweed, Ambrosia elatior), Russian thistle (Salsola kali), soybean (Glycine max), sunflower (common oilseed sunflower, Helianthus annuus) and velvetleaf (Abutilon theophrasti) were planted into a blend of loam soil and sand and treated preemergence with test compounds formulated in a non-phytotoxic solvent mixture which included a surfactant.\n(§3) At the same time, plants selected from these crop and weed species and also winter barley (Hordeum vulgare), canarygrass (Phalaris minor), chickweed (Stellaria media) and windgrass (Apera spica-venti) were planted in pots containing Redi-Earth® planting medium (Scotts Company, 14111 Scottslawn Road, Marysville, Ohio 43041) comprising spaghnum peat moss, vermiculite, wetting agent and starter nutrients and treated with postemergence applications of some of the test chemicals formulated in the same manner. Plants ranged in height from 2 to 18 cm (1- to 4-leaf stage) for postemergence treatments.\n(§4) Treated plants and controls were maintained in a greenhouse for 13 to 15 days, after which time all treated plants were visually evaluated and compared to controls. Plant response ratings, summarized in Table B, are based on a scale of 0 to 100 where 0 is no effect and 100 is complete control. A dash (-) response means no test result."}, "[4]": {"tested_on": "cocklebur (Xanthium strumarium)", "assay": "Test B pre-/postemergence plant response", "conditions": "for pest or weed control at 16 g/ha: 16 g ai/ha; for pest or weed control at 16 g/ha / pest or weed control at 31 g/ha / pest or weed control at 62 g/ha: read-out: Plant response rating, Cocklebur; for pest or weed control at 31 g/ha: 31 g ai/ha; for pest or weed control at 62 g/ha: 62 g ai/ha", "excerpt": "as §2, §3, §4"}, "[5]": {"tested_on": "bermudagrass (Cynodon dactylon)", "assay": "Test B pre-/postemergence plant response", "conditions": "for pest or weed control at 16 g/ha: 16 g ai/ha; for pest or weed control at 31 g/ha: 31 g ai/ha; for pest or weed control at 62 g/ha: 62 g ai/ha", "excerpt": "as §2, §3, §4"}, "[6]": {"conditions": "Preemergence, 125 g ai/ha, 0 to 100 scale"}, "[7]": {"conditions": "Triticum aestivum, pre-emergence, Preemergence, scale 0 to 100 (0 no effect, 100 complete control), read-out: Plant response rating, Wheat"}, "[8]": {"conditions": "Xanthium strumarium, pre-emergence, Preemergence, scale 0 to 100 (0 no effect, 100 complete control)"}, "[9]": {"conditions": "Cynodon dactylon, pre-emergence, Preemergence, scale 0 to 100 (0 no effect, 100 complete control), read-out: Plant response rating, Bermudagrass"}}, "note": "Like-named read-outs stand apart in the source and are kept apart here."}
{"molecule": "O=C1CCCC(O)=C1C(=O)c1cnc(-c2ccccc2)n(-c2ccccc2)c1=O", "note": "[Compound 2, 5-[(2-hydroxy-6-oxo-1-cyclohexen-1-yl)carbonyl]-2,3-diphenyl-4(3H)-pyrimidinone]", "values": [{"measurement": "pest or weed control at 500 g/ha", "setting": "[1]", "result": 70, "unit": "%"}, {"measurement": "pest or weed control at 125 g/ha", "setting": "[2]; post-emergence, Postemergence, visual injury, 0 to 100 scale (0 no effect, 100 complete control), approx. ten days, read-out: Morningglory plant response rating", "result": 90, "unit": "%"}, {"measurement": "pest or weed control at 500 g/ha", "setting": "[2]; post-emergence, Postemergence, 0 to 100 scale, 0 = no effect, 100 = complete control, approx. ten days, read-out: Plant response rating, Morningglory", "result": 100, "unit": "%"}, {"measurement": "pest or weed control at 125 g/ha", "setting": "[2]; pre-emergence, Preemergence, 0 to 100 scale, 0 = no effect, 100 = complete control, read-out: Plant response rating, Morningglory", "result": 60, "unit": "%"}, {"measurement": "pest or weed control at 500 g/ha", "setting": "[2]; pre-emergence, Preemergence, visual injury, 0 to 100 scale (0 no effect, 100 complete control), approx. ten days, read-out: Plant response rating, Morningglory", "result": 90, "unit": "%"}, {"measurement": "Wheat plant response rating", "setting": "[3]; [6]", "result": 0}, {"measurement": "plant injury at 16 g/ha", "setting": "[3]; Triticum aestivum, post-emergence, 16 g ai/ha, Postemergence, 0 to 100 scale, read-out: Plant response rating, Wheat", "result": 0, "unit": "%"}, {"measurement": "plant injury at 31 g/ha", "setting": "[3]; Triticum aestivum, post-emergence, Postemergence, scale 0 to 100 (0 no effect, 100 complete control), read-out: Plant response rating, Wheat", "result": 5, "unit": "%"}, {"measurement": "plant injury at 62 g/ha", "setting": "[3]; Triticum aestivum, post-emergence, Postemergence, scale 0 (no effect) to 100 (complete control), 13 to 15 days, read-out: Plant response rating, Wheat", "result": 10, "unit": "%"}, {"measurement": "plant injury at 125 g/ha", "setting": "[3]; Triticum aestivum, post-emergence, Postemergence, 125 g ai/ha, visual rating after 13 to 15 days, scale 0 (no effect) to 100 (complete control)", "result": 20, "unit": "%"}, {"measurement": "plant injury at 31 g/ha", "setting": "[3]; [7]", "result": 0, "unit": "%"}, {"measurement": "plant injury at 62 g/ha", "setting": "[3]; [7]", "result": 0, "unit": "%"}, {"measurement": "Cocklebur plant response rating", "setting": "[4]; [6]", "result": 80}, {"measurement": "pest or weed control at 16 g/ha", "setting": "[4]; Xanthium strumarium, post-emergence, Postemergence, 0 to 100 scale", "result": 75, "unit": "%"}, {"measurement": "pest or weed control at 31 g/ha", "setting": "[4]; Xanthium strumarium, post-emergence, Postemergence, scale 0 to 100 (0 no effect, 100 complete control)", "result": 80, "unit": "%"}, {"measurement": "pest or weed control at 62 g/ha", "setting": "[4]; Xanthium strumarium, post-emergence, Postemergence, scale 0 (no effect) to 100 (complete control), 13 to 15 days", "result": 90, "unit": "%"}, {"measurement": "pest or weed control at 125 g/ha", "setting": "[4]; Xanthium strumarium, post-emergence, Postemergence, 125 g ai/ha, visual rating after 13 to 15 days, scale 0 (no effect) to 100 (complete control)", "result": 95, "unit": "%"}, {"measurement": "pest or weed control at 16 g/ha", "setting": "[4]; [8]", "result": 0, "unit": "%"}, {"measurement": "pest or weed control at 31 g/ha", "setting": "[4]; [8]", "result": 0, "unit": "%"}, {"measurement": "pest or weed control at 62 g/ha", "setting": "[4]; Xanthium strumarium, pre-emergence, Preemergence, scale 0 to 100, 0 no effect, 100 complete control", "result": 65, "unit": "%"}, {"measurement": "pest or weed control at 16 g/ha", "setting": "[5]; Cynodon dactylon, post-emergence, Postemergence, 0 to 100 scale, read-out: Plant response rating, Bermudagrass", "result": 40, "unit": "%"}, {"measurement": "pest or weed control at 31 g/ha", "setting": "[5]; Cynodon dactylon, post-emergence, Postemergence, scale 0 to 100 (0 no effect, 100 complete control), read-out: Plant response rating, Bermudagrass", "result": 80, "unit": "%"}, {"measurement": "pest or weed control at 62 g/ha", "setting": "[5]; Cynodon dactylon, post-emergence, Postemergence, scale 0 (no effect) to 100 (complete control), 13 to 15 days, read-out: Plant response rating, Bermudagrass", "result": 85, "unit": "%"}, {"measurement": "pest or weed control at 125 g/ha", "setting": "[5]; Cynodon dactylon, post-emergence, Postemergence, 125 g ai/ha, scale 0 to 100 (0 no effect, 100 complete control), 13 to 15 days, read-out: Plant response rating, Bermudagrass", "result": 90, "unit": "%"}, {"measurement": "pest or weed control at 16 g/ha", "setting": "[5]; [9]", "result": 25, "unit": "%"}, {"measurement": "pest or weed control at 31 g/ha", "setting": "[5]; [9]", "result": 98, "unit": "%"}, {"measurement": "pest or weed control at 62 g/ha", "setting": "[5]; Cynodon dactylon, pre-emergence, Preemergence, scale 0 to 100, 0 no effect, 100 complete control, read-out: Plant response rating, Bermudagrass", "result": 100, "unit": "%"}, {"measurement": "Bermudagrass plant response rating", "setting": "[5]; [6]", "result": 100}]}
